Reference: PMC6009890, “Rosmarinic acid prevents fibrillization and diminishes vibrational modes associated to β sheet in tau protein linked to Alzheimer’s disease” (Journal of Enzyme Inhibition and Medicinal Chemistry, 2017)
Read-outs that look alike come from different tables or passages of the source.

Tests used:
tau protein (4R) [1] = molecular target: T1, tau protein (4R) (Homo sapiens, UniProt P10636); test: ThT fluorescence of heparin-induced aggregation of purified tau 4R, single concentration […]; assay type: biochemical
T1 construct: gene MAPT; fragment 4R (htau244–372), His-tagged

tau protein (4R) [2] = molecular target: T1, tau protein (4R); test: ThT fluorescence of heparin-induced aggregation of purified tau 4R; supported by AFM and Raman; assay type: biochemical

T1 sequence (P10636 561-689): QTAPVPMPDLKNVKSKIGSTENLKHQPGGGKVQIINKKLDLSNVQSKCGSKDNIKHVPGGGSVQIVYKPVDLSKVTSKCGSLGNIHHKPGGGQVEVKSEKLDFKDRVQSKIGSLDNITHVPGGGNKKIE

Row | inhibition at 50 µM (tau protein (4R) [1]; read-out: Inhibition (%)) | SMILES | further results
1 | 68% | CC(C)c1cc2c(c(O)c1O)[C@@]13CCCC(C)(C)[C@@H]1C[C@@H]2OC3=O [compound 1, carnosol] | –
2 | 50% | CC(C)c1cc2c(c(O)c1O)[C@@]13CCCC(C)(C)[C@@H]1[C@H](OC3=O)[C@H]2O [compound 3, rosmanol] | –
3 | 70% | CC(C)c1cc2c(c(O)c1O)[C@@]13CCCC(C)(C)[C@@H]1[C@H](O)[C@@H]2OC3=O [compound 4, epiisorosmanol] | –

Second part, the compound before the results:

Row | SMILES | inhibition at 50 µM (tau protein (4R) [1]; read-out: Inhibition (%)) | further results
4 | CC(C)c1cc2c(c(O)c1O)[C@@]1(C(=O)O)CCCC(C)(C)[C@@H]1CC2 [compound 2, carnosic acid] | – | inhibition at 50 µM (tau protein (4R) [1]): 65%
5 | O=C(/C=C/c1ccc(O)c(O)c1)O[C@H](Cc1ccc(O)c(O)c1)C(=O)O [compound 5, rosmarinic acid] | – | IC50 (tau protein (4R) [2]): 7.7 µM
